Reference: patent US6583154B1, “Compounds and methods which modulate feeding behavior and related diseases” (Amgen Inc., priority 1998, dated 2003)
Structures can show the parent of a compound that is named as a salt.

SMILES	melting point
Cc1nc(N2CCCCC2)c2[nH]c(-c3ccc(C(F)(F)F)cc3)c(C)c2n1.Cl	> 280 °C
COc1ccc(-c2[nH]c3c(N4CCCCC4)nc(C)nc3c2C)cc1.Cl	> 280 °C
Cc1nc(N2CCCCC2)c2[nH]c(-c3ccccc3)c(F)c2n1.Cl	> 280 °C
COc1ccc(Cc2cc3nc(C)nc(N4CCCCC4)c3[nH]2)cc1.Cl	263 to 267 °C
Cc1nc(N2CCCCC2)c2[nH]c(Cc3ccc(F)cc3)cc2n1.Cl	254 to 255 °C
Cc1nc(N2CCCCC2)c2[nH]c(C)c(-c3ccc(F)cc3)c2n1.Cl	> 280 °C
Cc1nc(N2CCCCC2)c2[nH]c(COc3ccccc3)cc2n1.Cl	238 to 239 °C
Cc1nc(N2CCCCC2)c2[nH]c(-c3ccc(F)c(F)c3)c(C)c2n1.Cl	> 280 °C
Cc1nc(N2CCCCC2)c2sc(C(C)(C)C)cc2[n+]1[O-].Cl	202 to 203 °C (dec.)
Cc1cc(N2CCCCC2)c2oc(-c3ccccc3)cc2n1.Cl	> 280 °C
CCCCc1cc2nc(C)cc(N3CCCCC3)c2o1.Cl	172 to 173 °C
Cc1nc(N2CCCCC2)c2[nH]c(-c3ccc(F)cc3)cc2n1.Cl	287 to 289 °C (dec.)
Cl.c1csc(-c2cc3ncnc(N4CCCCC4)c3[nH]2)c1	> 280 °C
Cl.c1coc(-c2cc3ncnc(N4CCCCC4)c3[nH]2)c1	> 280 °C
Cc1c(-c2ccccc2)[nH]c2c(N3CCCCC3)ncnc12.Cl	281 to 282.5 °C
Cc1nc(N2CCCCC2)c2[nH]c(-c3ccc(N)cc3)cc2n1 (as salt: hydrochloride)	> 280 °C
Cc1nc(N2[C@H](C)CCC[C@@H]2C)c2[nH]c(-c3ccc(F)cc3)cc2n1 (as salt: hydrochloride) (hydrate or solvate)	> 275 °C
CC(C)Cc1nc(N2CCCCC2)c2[nH]c(-c3ccccc3)cc2n1 (as salt: hydrochloride) (hydrate or solvate)	226 to 229.5 °C
COc1nc(N2CCCCC2)c2[nH]c(-c3ccccc3)cc2n1 (as salt: hydrochloride) (hydrate or solvate)	270 to 276 °C
CNc1nc(N2CCCCC2)c2[nH]c(-c3ccccc3)cc2n1 (as salt: hydrochloride) (hydrate or solvate)	195 to 200 °C
c1ccc(-c2cc3nc(N4CCN(c5ccccc5)CC4)nc(N4CCCCC4)c3[nH]2)cc1 (as salt: hydrochloride) (hydrate or solvate)	267.5 to 270 °C
c1ccc(-c2cc3nc(N4CCCC4)nc(N4CCCCC4)c3[nH]2)cc1 (as salt: hydrochloride) (hydrate or solvate)	> 272 °C
Cc1nc(N2CC=CCC2)c2sc(-c3ccccc3)cc2n1 (as salt: hydrochloride) (hydrate or solvate)	279 to 281 °C

SMILES	melting point
Cc1nc(N2CCCCC2)c2oc(-c3ccccc3)cc2n1 (as salt: hydrochloride) (hydrate or solvate)	> 290 °C
Cc1nc(N2CC=CC2)c2[nH]c(-c3ccccc3)cc2n1 (as salt: hydrochloride) (hydrate or solvate) [Example 61, 2-Methyl-6-phenyl-4-(pyrrolinyl)pyrrolo[3,2-d]pyrimidine Hydrochloride Monohydrate]	278 to 278.3 °C
Cc1nc(N2CCCCC2C)c2[nH]c(-c3ccccc3)cc2n1 (stereo not shown) (as salt: hydrochloride) (hydrate or solvate) [Example 63, 2-Methyl-6-phenyl-4-(2-methylpiperidinyl)pyrrolo(3,2-d)pyrimidine Hydrochloride Monohydrate]	268 to 269 °C
CCC1CCCCN1c1nc(C)nc2cc(-c3ccccc3)[nH]c12 (stereo not shown) (as salt: hydrochloride) (hydrate or solvate) [Example 64, 2-Methyl-6-phenyl-4-(2-ethylpiperidinyl)pyrrolo[3,2-d]pyrimidine Hydrochloride Hydrate]	228 to 229 °C
Nc1nc(N2CCCCC2)c2[nH]c(-c3ccccc3)cc2n1 (as salt: hydrochloride) (hydrate or solvate) [Example 66e, 6-Phenyl-4-piperidylpyrrolo[3,2-d]pyrimidine-2-yl Amine Hydrochloride Hydrate]	> 300 °C (dec.)
Cc1nc(N2CCCCC2)c2[nH]c(-c3cccc(N)c3)cc2n1 (as salt: hydrochloride) (hydrate or solvate) [Example 187, 3-(2-Methyl-4-piperidylpyrrolo[4,5-d]pyrimidin-6-yl)phenylamine Hydrochloride Monohydrate]	> 275 °C
Cc1nc(N2CCCC2)c2[nH]c(-c3ccccc3)cc2n1 (as salt: hydrochloride) (hydrate or solvate) [Example 193, 2-Methyl-6-phenyl-4-pyrrolidinylpyrrolo[3,2-d]pyrimidine Hydrochloride Monohydrate]	> 296 °C
Cc1nc(NC[C@H]2CC[C@H](CNS(=O)(=O)c3cccc4ccccc34)CC2)c2[nH]c(-c3ccccc3)cc2n1 (as salt: hydrochloride) (hydrate or solvate) [Example 194, trans-[(4-{[(2-Methyl-6-phenylpyrrolo[2,3-e]pyrimidin-4-yl)amino]methyl}cyclohexyl)methyl](naphthylsulfonyl)amine Hydrochloride Hydrate]	165 to 170 °C
CCCc1nc(N2CCCCC2)c2[nH]c(-c3ccccc3)cc2n1 (as salt: hydrochloride) (hydrate or solvate) [Example 196c, 6-Phenyl-4-piperidyl-2-propylpyrrolo[3,2-d]pyrimidine Hydrochloride Monohydrate]	258 to 262.5 °C
Cc1nc(N2CC=CC2)c2[nH]c(-c3cccc(C(F)(F)F)c3)cc2n1 (as salt: hydrochloride) (hydrate or solvate) [Example 197d, 2-Methyl-4-(3-pyrrolinyl)-6-[3-(trifluoromethyl)phenyl]pyrrolo[3,2-d]pyrimidine Hydrochloride Monohydrate]	> 270 °C
Cc1nc(N2CC=CC2)c2[nH]c(-c3cccc(Cl)c3)cc2n1 (as salt: hydrochloride) (hydrate or solvate) [Example 198, 6-(3-Chlorophenyl)-2-methyl-4-(3-pyrrolinyl)pyrrolo[3,2-d]pyrimidine Hydrochloride Hydrate]	287.5 to 293 °C
CCc1nc(N2CCc3ccccc3C2)c2[nH]c(-c3ccccc3)cc2n1 (as salt: hydrochloride) (hydrate or solvate) [Example 202, 2-Ethyl-6-phenyl-4-(2-1,2,3,4-tetrahydroisoquinolyl)pyrrolo[3,2-d]pyrimidine Hydrochloride Monohydrate]	170 to 171.5 °C
CN(C)c1nc(N2CCCCC2)c2[nH]c(-c3ccccc3)cc2n1 (as salt: hydrochloride) (hydrate or solvate) [Example 203, Hydrochloride Hydrate]	> 300 °C
Fc1ccc(-c2cc3nc(C4CC4)nc(N4CCCCC4)c3[nH]2)cc1 (as salt: hydrochloride) (hydrate or solvate) [Example 209c, 2-Cyclopropyl-6-(4-fluorophenyl)-4-piperidylpyrrolo[3,2-d]pyrimidine Hydrochloride Hydrate]	> 280 °C
Cc1nc(N2CCc3ccccc32)c2[nH]c(-c3ccccc3)cc2n1 (as salt: hydrochloride) (hydrate or solvate) [Example 215, 4-Indolinyl-2-methyl-6-phenylpyrrolo[3,2-d]pyrimidine Hydrochloride Hydrate]	> 300 °C
Cc1nc(N2CC=CC2)c2oc(-c3ccccc3)cc2n1 (as salt: hydrochloride) (hydrate or solvate) [Example 216c, 2-Methyl-6-phenyl-4-(3-pyrrolinyl)furano[3,2-d]pyrimidine Hydrochloride Hydrate]	279 to 280 °C
Cc1nc(N2CCCCC2)c2sc(-c3ccc(F)cc3)cc2n1 (as salt: hydrochloride) (hydrate or solvate) [Example 217, 6-(4-Fluorophenyl)-2-methyl-4-piperidylthiopheno[3,2-d]pyrimidine Hydrochloride Hydrate]	285 to 287 °C
Cc1nc(-n2cccn2)c2[nH]c(-c3ccccc3)cc2n1 (as salt: hydrochloride) (hydrate or solvate) [Example 218, 2-Methyl-6-phenyl-4-pyrazolypyrrolo[3,2-d]pyrimidine Hydrochloride Hydrate]	253 to 254 °C
Cc1nc(N2C(C)C=CC2C)c2[nH]c(-c3ccccc3)cc2n1 (stereo not shown) (as salt: hydrochloride) (hydrate or solvate) [Example 220, 4-(2,5-Dimethyl(3-pyrrolinyl)-2-methyl-6-phenylpyrrolo[3,2-d]pyrimidine Hydrochloride Hydrate]	242 to 243 °C
Cc1nc(N2CCc3ccccc3C2)c2sc(-c3ccccc3)cc2n1 (as salt: hydrochloride) (hydrate or solvate) [Example 221b, 2-Methyl-6-phenyl-4-[2-1,2,3,4-tetrahydroisoquinolyl)thiopheno[3,2-d]pyrimidine Hydrochloride Hydrate]	263 to 265 °C
Cc1nc(N2CCN(S(=O)(=O)c3ccccc3)CC2)c2[nH]c(-c3ccccc3)cc2n1 (as salt: hydrochloride) (hydrate or solvate) [Example 227, 1-(2-Methyl-6-phenylpyrrolo[2,3-e]pyrimidin-4-yl(phenylsulfonyl)piperazine Hydrochloride Monohydrate]	242 to 243 °C
Cc1nc(N2CCCCC2)c2[nH]c(-c3ccccc3)cc2n1 (as salt: hydrochloride) [Example 35, 2-methyl-6-phenyl-4-(piperidinyl)pyrrolo[3,2-d]pyrimidine]	293 to 294 °C
Cc1nc(N2CCCCC2CCO)c2[nH]c(-c3ccccc3)cc2n1 (stereo not shown) (as salt: hydrochloride) [Example 62, 2-Methyl-6-phenyl-4-(2-piperidineethanolyl)pyrrolo(3,2-d)pyrimidine Hydrochloride]	273 to 273.5 °C
